Numbers after ± are expanded uncertainties.
Experiments:
[1] = xn = mol fraction of the nth substance listed; settings: 298.15 K, Pendant drop shape
[2] = 298.15 K; for mass density: 101.33 kPa, Vibrating tube method; for surface tension liquid-gas: Pendant drop shape

## Cc1ccc(C)cc1 [1,4-dimethylbenzene] + CC(C)O
[1]; x2 = 0
  surface tension liquid-gas: 27.89 ± 0.38 mN/m
[1]; x2 = 0.1029
  surface tension liquid-gas: 26.82 ± 0.37 mN/m
[1]; x2 = 0.2014
  surface tension liquid-gas: 26.03 ± 0.36 mN/m
[1]; x2 = 0.2993
  surface tension liquid-gas: 25.32 ± 0.35 mN/m
[1]; x2 = 0.403
  surface tension liquid-gas: 24.63 ± 0.35 mN/m
[1]; x2 = 0.4979
  surface tension liquid-gas: 24.06 ± 0.34 mN/m
[1]; x2 = 0.5985
  surface tension liquid-gas: 23.45 ± 0.33 mN/m
[1]; x2 = 0.6991
  surface tension liquid-gas: 22.86 ± 0.33 mN/m
[1]; x2 = 0.7982
  surface tension liquid-gas: 22.22 ± 0.32 mN/m
[1]; x2 = 0.9047
  surface tension liquid-gas: 21.52 ± 0.32 mN/m

## Cc1cccc(C)c1 [1,3-dimethylbenzene] + CC(C)(C)O
[1]; x2 = 0
  surface tension liquid-gas: 28.36 ± 0.39 mN/m
[1]; x2 = 0.1028
  surface tension liquid-gas: 26.83 ± 0.37 mN/m
[1]; x2 = 0.201
  surface tension liquid-gas: 25.76 ± 0.36 mN/m
[1]; x2 = 0.3006
  surface tension liquid-gas: 24.84 ± 0.35 mN/m
[1]; x2 = 0.4009
  surface tension liquid-gas: 23.98 ± 0.34 mN/m
[1]; x2 = 0.4999
  surface tension liquid-gas: 23.21 ± 0.33 mN/m
[1]; x2 = 0.5994
  surface tension liquid-gas: 22.52 ± 0.33 mN/m
[1]; x2 = 0.6984
  surface tension liquid-gas: 21.84 ± 0.32 mN/m
[1]; x2 = 0.7981
  surface tension liquid-gas: 21.22 ± 0.31 mN/m
[1]; x2 = 0.895
  surface tension liquid-gas: 20.64 ± 0.31 mN/m

## CC(C)(C)O [2-methylpropan-2-ol] + Cc1cccc(C)c1
[1]; x1 = 1
  surface tension liquid-gas: 19.97 ± 0.3 mN/m

## CC(C)O [propan-2-ol] + Cc1ccc(C)cc1
[1]; x1 = 1
  surface tension liquid-gas: 20.93 ± 0.31 mN/m

## CC(C)O [propan-2-ol] + Cc1cccc(C)c1
[1]; x1 = 1
  surface tension liquid-gas: 20.93 ± 0.31 mN/m

## CC(C)O [propan-2-ol]
[2]; Liquid
  mass density: 780.85 ± 0.16 kg/m3
  surface tension liquid-gas: 20.93 ± 0.31 mN/m

## Cc1ccccc1C [1,2-dimethylbenzene] + CC(C)O
[1]; x2 = 0
  surface tension liquid-gas: 29.6 ± 0.4 mN/m
[1]; x2 = 0.0992
  surface tension liquid-gas: 28.21 ± 0.38 mN/m
[1]; x2 = 0.1988
  surface tension liquid-gas: 27.11 ± 0.37 mN/m
[1]; x2 = 0.3024
  surface tension liquid-gas: 26.07 ± 0.36 mN/m
[1]; x2 = 0.4004
  surface tension liquid-gas: 25.3 ± 0.35 mN/m
[1]; x2 = 0.4979
  surface tension liquid-gas: 24.54 ± 0.35 mN/m
[1]; x2 = 0.5971
  surface tension liquid-gas: 23.98 ± 0.34 mN/m
[1]; x2 = 0.6988
  surface tension liquid-gas: 23.15 ± 0.33 mN/m
[1]; x2 = 0.8
  surface tension liquid-gas: 22.4 ± 0.32 mN/m
[1]; x2 = 0.8896
  surface tension liquid-gas: 21.72 ± 0.32 mN/m

## Cc1cccc(C)c1 [1,3-dimethylbenzene]
[2]; Liquid
  mass density: 859.79 ± 0.16 kg/m3
  surface tension liquid-gas: 28.36 ± 0.39 mN/m

## Cc1cccc(C)c1 [1,3-dimethylbenzene] + CC(C)O
[1]; x2 = 0
  surface tension liquid-gas: 28.36 ± 0.39 mN/m
[1]; x2 = 0.1019
  surface tension liquid-gas: 27.15 ± 0.38 mN/m
[1]; x2 = 0.1933
  surface tension liquid-gas: 26.23 ± 0.37 mN/m
[1]; x2 = 0.2999
  surface tension liquid-gas: 25.4 ± 0.36 mN/m
[1]; x2 = 0.4024
  surface tension liquid-gas: 24.76 ± 0.35 mN/m
[1]; x2 = 0.4983
  surface tension liquid-gas: 24.18 ± 0.34 mN/m
[1]; x2 = 0.5957
  surface tension liquid-gas: 23.56 ± 0.34 mN/m
[1]; x2 = 0.7013
  surface tension liquid-gas: 22.87 ± 0.33 mN/m
[1]; x2 = 0.7952
  surface tension liquid-gas: 22.26 ± 0.32 mN/m
[1]; x2 = 0.8987
  surface tension liquid-gas: 21.58 ± 0.32 mN/m

## CC(C)(C)O [2-methylpropan-2-ol] + Cc1ccc(C)cc1
[1]; x1 = 1
  surface tension liquid-gas: 19.97 ± 0.3 mN/m

## Cc1ccccc1C [1,2-dimethylbenzene] + CC(C)(C)O
[1]; x2 = 0
  surface tension liquid-gas: 29.6 ± 0.4 mN/m
[1]; x2 = 0.1083
  surface tension liquid-gas: 27.8 ± 0.38 mN/m
[1]; x2 = 0.1992
  surface tension liquid-gas: 26.43 ± 0.36 mN/m
[1]; x2 = 0.3042
  surface tension liquid-gas: 25.27 ± 0.35 mN/m
[1]; x2 = 0.402
  surface tension liquid-gas: 24.32 ± 0.34 mN/m
[1]; x2 = 0.5007
  surface tension liquid-gas: 23.6 ± 0.34 mN/m
[1]; x2 = 0.5988
  surface tension liquid-gas: 22.82 ± 0.33 mN/m
[1]; x2 = 0.6992
  surface tension liquid-gas: 22.05 ± 0.32 mN/m
[1]; x2 = 0.8
  surface tension liquid-gas: 21.38 ± 0.31 mN/m
[1]; x2 = 0.8991
  surface tension liquid-gas: 20.71 ± 0.31 mN/m

## Cc1ccc(C)cc1 [1,4-dimethylbenzene] + CC(C)(C)O
[1]; x2 = 0
  surface tension liquid-gas: 27.89 ± 0.38 mN/m
[1]; x2 = 0.1004
  surface tension liquid-gas: 26.69 ± 0.37 mN/m
[1]; x2 = 0.2113
  surface tension liquid-gas: 25.63 ± 0.36 mN/m
[1]; x2 = 0.3049
  surface tension liquid-gas: 24.73 ± 0.35 mN/m
[1]; x2 = 0.4065
  surface tension liquid-gas: 23.9 ± 0.34 mN/m
[1]; x2 = 0.498
  surface tension liquid-gas: 23.25 ± 0.33 mN/m
[1]; x2 = 0.6012
  surface tension liquid-gas: 22.5 ± 0.33 mN/m
[1]; x2 = 0.698
  surface tension liquid-gas: 21.82 ± 0.32 mN/m
[1]; x2 = 0.8007
  surface tension liquid-gas: 21.15 ± 0.31 mN/m
[1]; x2 = 0.9002
  surface tension liquid-gas: 20.58 ± 0.31 mN/m

## CC(C)O [propan-2-ol] + Cc1ccccc1C
[1]; x1 = 1
  surface tension liquid-gas: 20.93 ± 0.31 mN/m

## CC(C)(C)O [2-methylpropan-2-ol]
[2]; Liquid
  mass density: 780.27 ± 0.16 kg/m3
[2]; Metastable liquid
  surface tension liquid-gas: 19.97 ± 0.3 mN/m

## CC(C)(C)O [2-methylpropan-2-ol] + Cc1ccccc1C
[1]; x1 = 1
  surface tension liquid-gas: 19.97 ± 0.3 mN/m

## Cc1ccccc1C [1,2-dimethylbenzene]
[2]; Liquid
  mass density: 875.92 ± 0.11 kg/m3
  surface tension liquid-gas: 29.6 ± 0.4 mN/m

## Cc1ccc(C)cc1 [1,4-dimethylbenzene]
[2]; Liquid
  mass density: 856.85 ± 0.12 kg/m3
  surface tension liquid-gas: 27.89 ± 0.38 mN/m

Reference: the NIST ThermoML archive (doi:10.1021/je0256028)
